{"source": "patent US12036229B2", "about": "“Use of phosphorylated heptose compounds” (NATIONAL RESEARCH COUNCIL OF CANADA, priority 2017, dated 2024)", "tested_on": "CT26 cells (colon carcinoma from BALB/c mice)", "test": "CT26 tumour model in BALB/c mice", "assay_type": "in vivo", "conditions": "intraperitoneal; HMP 200 μg per day D10, D11, D12; LPS 1x at 3 mg/kg; 11 day period, vs PBS; FIG. 14c"}
{"substance": "lipopolysaccharide [LPS]", "values": [{"measurement": "change in tumour volume relative to day 10 (rate of tumour growth)", "result": "significantly reduced the rate of tumour growth"}]}
